Laboratory results from US10189807B2, “Tetrahydrothiophene-based GABA aminotransferase inactivators” (Northwestern University, priority 2015, dated 2019).
Structures can show the parent of a compound that is named as a salt. Where two headings read alike, the source gives them in different places. Values belong to the molecule of their own block, whether it stands above or below them.

What was measured:
[1] = target: T1, GABA-AT (Sus scrofa (Pig), UniProt P80147); assay: Inhibition of GABA-AT, coupled assay with SSDH; type: biochemical
Procedure: (§1) GABA-AT was isolated and purified from pig brain by a published procedure.
Inhibition constants were determined by monitoring GABA-AT activity in the presence of 0-50 mM concentrations of synthesized analogues using a coupled assay with the enzyme succinic semialdehyde dehydrogenase (SSDH). The assay solution consisted of 10 mM GABA, 5 mM α ketoglutarate, 1 mM NADP^+, 5 mM β-mercaptoethanol, and excess SSDH in 50 mM potassium pyrophosphate buffer, pH 8.5. Enzyme activity was determined by observing the change in absorbance at 340 nm at 25° C. IC50 values were obtained using non-linear regression in GraphPad Prism5 software. Subsequent Ki values were determined using the Cheng-Prusoff relationship. (Yung-Chi, C.; Prusoff, W. H. Biochem. Pharmacol. 1973, 22, 3099-3108.)

[2] = test system: aspartate aminotransferase; settings: off-target enzyme; cited from earlier work
[3] = test system: GABA-AT; settings: prior art; cited from earlier work
[4] = target: CYP2C9 (Homo sapiens (Human), UniProt P11712); assay: Inhibition of microsomal cytochromes P450: CYP2C9; type: in vitro ADME; settings: 10 μM, HLM, diclofenac substrate, 10 min at 37° C.
Procedure: (§2) The experiments were performed by Eurofins Panlabs (Redmond, Wash. 98052, USA). CYP1A inhibition (HLM, phenacetin substrate), CYP2B6 inhibition (HLM, bupropion substrate), CYP2C8 inhibition (HLM, paclitaxel substrate), CYP2C9 inhibition (HLM, diclofenac substrate), CYP2C19 inhibition (HLM, omeprazole substrate), CYP2D6 inhibition (HLM, dextromethorphan substrate), and CYP3A inhibition (HLM, midazolam and testosterone substrates) were tested. The test concentration was 10 μM. The incubation time was 10 min at 37° C. The detection method was by HPLC-MS/MS. The experiments were duplicated, and the % inhibition of the control values was averaged (FIG. 10).

[5] = Plasma protein binding; type: in vitro ADME
[6] = target: hERG channel (Homo sapiens (Human), UniProt Q12809); assay: Inhibition of the hERG channel, automated whole-cell patch clamp; type: cell-based; settings: hERG CHO-K1 cell line; 0.1, 1 and 10 μM; 5 min at room temperature
Procedure: The experiments were performed by Eurofins Panlabs (Redmond, Wash. 98052, USA). hERG CHO-K1 cell line was used. The test concentrations were 0.1 μM, 1 μM, and 10 μM. The incubation time was 5 min at room temperature, cumulatively. The detection method used an automated whole-cell patch clamp. The experiments were duplicated, and the % inhibition of the tail current was averaged (FIG. 9).

[7] = Metabolic stability in human liver microsomes; type: in vitro ADME; settings: 0.1 μM, over 60 minutes at 37° C., LC-MS/MS
Procedure: The experiments were performed by Eurofins Panlabs (Redmond, Wash. 98052, USA). The test concentration of 17 was 0.1 μM. […] The detection method was by LC-MS/MS. Imipramine, propranolol, terfenadine, and verapamil were run in similar condition as controls.

[8] = test system: CYP3A; assay: Inhibition of microsomal cytochromes P450: CYP3A; type: in vitro ADME, human; settings: 10 μM, HLM, midazolam and testosterone substrates, 10 min at 37° C.
Procedure: as §2

[9] = target: CYP2C8 (Homo sapiens (Human), UniProt P10632); assay: Inhibition of microsomal cytochromes P450: CYP2C8; type: in vitro ADME; settings: 10 μM, HLM, paclitaxel substrate, 10 min at 37° C.
Procedure: as §2

[10] = target: CYP2B6 (Homo sapiens (Human), UniProt P20813); assay: Inhibition of microsomal cytochromes P450: CYP2B6; type: in vitro ADME; settings: 10 μM, HLM, bupropion substrate, 10 min at 37° C.
Procedure: as §2

[11] = target: CYP2C19 (Homo sapiens (Human), UniProt P33261); assay: Inhibition of microsomal cytochromes P450: CYP2C19; type: in vitro ADME; settings: 10 μM, HLM, omeprazole substrate, 10 min at 37° C.
Procedure: as §2

[12] = target: T1, GABA-AT; assay: Time-dependent inhibition (inactivation) of GABA-AT, Kitz and Wilson replot; type: biochemical; settings: preliminary in vitro results
Procedure: as §1
GABA-AT (17.5 μL) was incubated in the presence of varying concentrations of each compound (70 μL final volume) at 25° C. in 50 mM potassium pyrophosphate buffer solution, pH 6.5, containing 5 mM α-ketoglutarate and 1 mM β-mercaptoethanol. […] The relative enzyme activity was determined by normalizing the rate of increasing absorbance at 340 nm to a control. A Kitz and Wilson replot was used to determine the kinetic constants KI and kinact.

[13] = target: CYP1A (Homo sapiens (Human), UniProt P05177); assay: Inhibition of microsomal cytochromes P450: CYP1A; type: in vitro ADME; settings: 10 μM, HLM, phenacetin substrate, 10 min at 37° C.
Procedure: as §2

[14] = target: CYP2D6 (Homo sapiens (Human), UniProt P10635); assay: Inhibition of microsomal cytochromes P450: CYP2D6; type: in vitro ADME; settings: 10 μM, HLM, dextromethorphan substrate, 10 min at 37° C.
Procedure: as §2

[15] = test system: infantile spasms; settings: multiple-hit rat model of infantile spasms; cited from earlier work
[16] = competitive inhibition, read-out: Ki (competitive inhibitor of GABA-AT)

T1 sequence (P80147 29-500 limits assumed): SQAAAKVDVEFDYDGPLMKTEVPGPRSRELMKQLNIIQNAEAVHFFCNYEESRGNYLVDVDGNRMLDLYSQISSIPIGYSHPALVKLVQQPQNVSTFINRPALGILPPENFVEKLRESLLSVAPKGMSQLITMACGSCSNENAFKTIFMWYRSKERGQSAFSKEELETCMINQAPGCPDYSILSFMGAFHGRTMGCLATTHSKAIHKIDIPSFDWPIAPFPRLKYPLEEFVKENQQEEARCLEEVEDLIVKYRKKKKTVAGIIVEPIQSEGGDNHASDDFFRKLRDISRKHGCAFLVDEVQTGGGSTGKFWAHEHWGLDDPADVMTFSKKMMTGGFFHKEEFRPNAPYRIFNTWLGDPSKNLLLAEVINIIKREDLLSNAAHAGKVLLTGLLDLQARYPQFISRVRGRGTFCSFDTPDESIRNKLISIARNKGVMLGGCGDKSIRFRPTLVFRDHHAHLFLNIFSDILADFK
Sequence of CYP2B6 (P20813 whole entry): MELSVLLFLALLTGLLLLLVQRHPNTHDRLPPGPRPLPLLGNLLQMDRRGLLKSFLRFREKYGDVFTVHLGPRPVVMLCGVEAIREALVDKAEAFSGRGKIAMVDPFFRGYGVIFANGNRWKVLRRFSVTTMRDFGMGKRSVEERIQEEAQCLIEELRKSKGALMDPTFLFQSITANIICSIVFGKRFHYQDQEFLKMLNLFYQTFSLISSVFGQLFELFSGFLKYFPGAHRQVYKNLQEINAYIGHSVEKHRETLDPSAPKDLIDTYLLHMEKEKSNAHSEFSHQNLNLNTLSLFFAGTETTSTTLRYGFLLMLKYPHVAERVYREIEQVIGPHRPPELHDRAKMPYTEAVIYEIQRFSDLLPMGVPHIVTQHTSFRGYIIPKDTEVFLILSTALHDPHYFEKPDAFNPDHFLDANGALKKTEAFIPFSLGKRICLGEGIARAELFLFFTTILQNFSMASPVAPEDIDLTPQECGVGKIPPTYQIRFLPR
Sequence of CYP1A (P05177 whole entry): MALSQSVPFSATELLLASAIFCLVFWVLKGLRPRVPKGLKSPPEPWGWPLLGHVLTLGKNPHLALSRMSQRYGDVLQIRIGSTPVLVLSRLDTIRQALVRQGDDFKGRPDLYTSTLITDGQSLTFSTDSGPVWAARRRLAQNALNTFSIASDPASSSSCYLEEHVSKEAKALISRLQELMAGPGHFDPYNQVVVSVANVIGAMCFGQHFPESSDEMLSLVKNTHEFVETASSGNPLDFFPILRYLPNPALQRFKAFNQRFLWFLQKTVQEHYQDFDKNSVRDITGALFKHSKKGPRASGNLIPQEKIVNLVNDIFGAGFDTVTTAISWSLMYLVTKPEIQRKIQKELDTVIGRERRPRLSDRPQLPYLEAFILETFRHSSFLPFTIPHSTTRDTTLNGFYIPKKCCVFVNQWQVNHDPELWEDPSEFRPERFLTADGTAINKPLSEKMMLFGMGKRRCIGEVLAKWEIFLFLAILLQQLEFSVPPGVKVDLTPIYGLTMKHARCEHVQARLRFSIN
Sequence of CYP2C19 (P33261 whole entry): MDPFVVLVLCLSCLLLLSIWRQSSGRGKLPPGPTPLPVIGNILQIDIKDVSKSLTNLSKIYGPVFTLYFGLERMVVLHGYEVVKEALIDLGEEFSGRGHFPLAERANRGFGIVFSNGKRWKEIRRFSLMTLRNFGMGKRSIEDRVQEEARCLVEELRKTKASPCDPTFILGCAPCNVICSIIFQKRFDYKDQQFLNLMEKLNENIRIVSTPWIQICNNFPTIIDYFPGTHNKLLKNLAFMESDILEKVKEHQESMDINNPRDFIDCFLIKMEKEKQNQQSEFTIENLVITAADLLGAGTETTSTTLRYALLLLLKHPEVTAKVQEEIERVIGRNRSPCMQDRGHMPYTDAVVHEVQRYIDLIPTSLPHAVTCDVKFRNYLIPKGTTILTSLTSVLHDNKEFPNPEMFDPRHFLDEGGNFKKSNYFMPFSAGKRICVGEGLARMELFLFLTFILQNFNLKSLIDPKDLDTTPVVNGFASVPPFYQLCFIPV
Sequence of CYP2D6 (P10635 whole entry): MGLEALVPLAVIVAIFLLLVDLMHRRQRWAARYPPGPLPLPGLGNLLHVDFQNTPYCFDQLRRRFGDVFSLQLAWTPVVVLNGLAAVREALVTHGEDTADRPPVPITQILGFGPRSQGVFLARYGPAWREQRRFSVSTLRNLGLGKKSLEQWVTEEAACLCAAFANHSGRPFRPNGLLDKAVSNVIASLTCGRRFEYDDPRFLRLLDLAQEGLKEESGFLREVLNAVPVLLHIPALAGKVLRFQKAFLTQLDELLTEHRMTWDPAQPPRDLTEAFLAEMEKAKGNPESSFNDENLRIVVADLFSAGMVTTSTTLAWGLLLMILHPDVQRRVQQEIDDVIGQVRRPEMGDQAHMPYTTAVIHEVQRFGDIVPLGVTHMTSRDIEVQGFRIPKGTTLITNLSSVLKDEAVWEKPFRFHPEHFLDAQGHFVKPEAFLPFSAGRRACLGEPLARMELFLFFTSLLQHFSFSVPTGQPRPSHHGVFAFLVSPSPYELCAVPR
Sequence of hERG channel (Q12809 whole entry): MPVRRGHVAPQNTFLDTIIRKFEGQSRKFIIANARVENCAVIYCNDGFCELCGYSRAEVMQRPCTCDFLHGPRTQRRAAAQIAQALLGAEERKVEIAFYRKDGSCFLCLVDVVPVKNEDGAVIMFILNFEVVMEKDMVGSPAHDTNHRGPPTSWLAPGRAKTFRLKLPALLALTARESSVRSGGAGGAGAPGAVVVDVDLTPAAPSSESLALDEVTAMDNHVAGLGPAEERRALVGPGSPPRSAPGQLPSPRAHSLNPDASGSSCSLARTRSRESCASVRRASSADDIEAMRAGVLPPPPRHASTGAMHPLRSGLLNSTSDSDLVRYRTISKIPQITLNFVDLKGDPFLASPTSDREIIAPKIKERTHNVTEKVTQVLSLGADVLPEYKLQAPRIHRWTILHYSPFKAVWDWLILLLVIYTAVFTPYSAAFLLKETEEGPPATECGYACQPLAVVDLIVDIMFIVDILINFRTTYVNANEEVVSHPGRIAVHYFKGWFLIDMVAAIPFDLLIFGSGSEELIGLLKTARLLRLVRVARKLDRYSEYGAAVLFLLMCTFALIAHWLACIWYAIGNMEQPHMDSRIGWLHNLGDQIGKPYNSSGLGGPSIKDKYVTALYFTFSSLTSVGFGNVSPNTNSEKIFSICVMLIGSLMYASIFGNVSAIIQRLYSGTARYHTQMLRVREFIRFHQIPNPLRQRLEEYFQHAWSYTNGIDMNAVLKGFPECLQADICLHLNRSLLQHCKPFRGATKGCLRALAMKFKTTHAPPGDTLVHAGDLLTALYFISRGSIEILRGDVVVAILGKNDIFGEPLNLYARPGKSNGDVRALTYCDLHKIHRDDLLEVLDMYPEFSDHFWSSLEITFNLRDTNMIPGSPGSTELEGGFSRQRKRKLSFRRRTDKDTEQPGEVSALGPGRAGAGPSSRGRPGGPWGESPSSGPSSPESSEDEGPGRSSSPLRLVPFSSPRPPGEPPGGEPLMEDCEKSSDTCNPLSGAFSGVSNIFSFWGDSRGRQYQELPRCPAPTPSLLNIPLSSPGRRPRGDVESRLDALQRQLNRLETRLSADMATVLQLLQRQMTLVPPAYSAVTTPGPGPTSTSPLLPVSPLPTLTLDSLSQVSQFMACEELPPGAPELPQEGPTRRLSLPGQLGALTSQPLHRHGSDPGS
Sequence of CYP2C8 (P10632 whole entry): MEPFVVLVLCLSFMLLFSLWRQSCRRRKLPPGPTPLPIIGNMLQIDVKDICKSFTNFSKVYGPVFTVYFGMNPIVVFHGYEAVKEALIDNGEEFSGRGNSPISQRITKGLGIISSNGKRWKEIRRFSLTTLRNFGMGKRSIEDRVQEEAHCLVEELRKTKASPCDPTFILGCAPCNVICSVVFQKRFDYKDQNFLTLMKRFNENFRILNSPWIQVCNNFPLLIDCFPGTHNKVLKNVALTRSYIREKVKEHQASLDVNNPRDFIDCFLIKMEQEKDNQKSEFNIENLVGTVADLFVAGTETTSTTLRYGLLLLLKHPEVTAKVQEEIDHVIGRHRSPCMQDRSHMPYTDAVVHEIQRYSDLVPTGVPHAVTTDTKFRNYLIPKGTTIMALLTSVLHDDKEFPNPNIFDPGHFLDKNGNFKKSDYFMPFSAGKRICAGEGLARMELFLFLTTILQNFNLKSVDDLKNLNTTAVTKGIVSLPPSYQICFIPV
Sequence of CYP2C9 (P11712 whole entry): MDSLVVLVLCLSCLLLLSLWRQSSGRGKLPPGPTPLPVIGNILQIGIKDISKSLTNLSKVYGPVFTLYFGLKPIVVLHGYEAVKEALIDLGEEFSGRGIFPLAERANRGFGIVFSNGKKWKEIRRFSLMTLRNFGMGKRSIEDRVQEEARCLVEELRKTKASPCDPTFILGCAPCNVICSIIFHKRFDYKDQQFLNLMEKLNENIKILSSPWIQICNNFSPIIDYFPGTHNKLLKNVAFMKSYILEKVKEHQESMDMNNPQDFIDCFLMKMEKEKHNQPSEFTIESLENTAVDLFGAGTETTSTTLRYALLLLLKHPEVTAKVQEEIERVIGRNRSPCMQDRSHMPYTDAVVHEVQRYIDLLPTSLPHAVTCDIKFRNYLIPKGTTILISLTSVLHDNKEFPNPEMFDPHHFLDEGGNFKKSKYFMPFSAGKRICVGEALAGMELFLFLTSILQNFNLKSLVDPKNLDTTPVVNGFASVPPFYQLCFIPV

Ki ([1]; read-out: Ki (reversible inhibition)): 3200 ± 700 µM
Molecule: N[C@H]1CC(C(=O)O)S(=O)(=O)C1 (mixture of isomers) [Compound 19, (4S)-4-Aminotetrahydrothiophene-2-carboxylic acid 1,1-dioxide hydrochloride]

Molecule: N[C@H]1C=C(C(=O)O)SC1 [(S)-4-Amino-4,5-dihydro-2-thiophenecarboxylic acid]
Inactivation or inhibition of aspartate aminotransferase [2]: inactivator
Potency/inactivation of GABA-AT (in words) [3]: known inactivator

Molecule: Cl.N[C@@H]1CS[C@H](C(=O)O)C1 [Compound 17, (2S,4S)-4-Aminotetrahydrothiophene-2-carboxylic acid hydrochloride]
CYP2C9 inhibition [4]: did not inhibit or induce
fraction unbound [5]: 0.74
Inhibition of the hERG channel [6]: did not inhibit
metabolized in HLM [7]: less than 20%
CYP3A inhibition [8]: did not inhibit or induce
CYP2C8 inhibition [9]: did not inhibit or induce
CYP2B6 inhibition [10]: did not inhibit or induce
CYP2C19 inhibition [11]: did not inhibit or induce
Inactivation of GABA-AT (in words) [12]: potent inactivators
CYP1A inhibition [13]: did not inhibit or induce
CYP2D6 inhibition [14]: did not inhibit or induce

Molecule: Cl.N[C@@H]1CS[C@@H](C(=O)O)C1 [Compound 18, (2R,4S)-4-Aminotetrahydrothiophene-2-carboxylic acid hydrochloride]
Inactivation of GABA-AT (in words) [12]: potent inactivators

Ki ([1]; pH 8.5, 25° C., from IC50 by Cheng-Prusoff, read-out: Ki (reversible inhibition)): 7500 ± 700 µM
Molecule: N[C@@H]1CC(C(=O)O)S(=O)(=O)C1 (stereo partly drawn) [Compound 22]

Ki [1, 16]: 870 µM
Inactivation of GABA-AT (in words) [12]: not an inactivator
Molecule: N[C@@H]1CC[C@H](C(=O)O)C1 [Compound 39, (1S,3R)-3-aminocyclopentane-1-carboxylic acid]

Ki [1, 16]: 1300 µM
Molecule: N[C@@H]1CN[C@H](C(=O)O)C1 [Compound 41, (2S,4S)-4-aminopyrrolidine-2-carboxylic acid]

Molecule: C=CC(N)CCC(=O)O (stereo not drawn) [vigabatrin]
Duration of effective spasms suppression [15]: 1 days

Ki [1, 16]: 430 µM
Molecule: mixture of (2S,4S)-4-aminotetrahydrofuran-2-carboxylic acid (40) and (2R,4R)-4-aminotetrahydrofuran-2-carboxylic acid (51) [mixture of enantiomers 40 and 51]
